Legend:
Assay type in all cases: cell-based, human
hESC-derived NK cells = assay: CD107a degranulation assay with K562 target cells; details: Day 11+28, K562 targets at 2:1 effector:target ratio, 4 hours
[1] = tested on: non-adherent hematopoietic fractions of differentiating hESC-derived cells; assay: qRT-PCR of hematopoietic transcriptional regulators
Description: FIG. 9A. Non-adherent hematopoietic progenitor cells derived from hESCs differentiated in the presence of SR-1, TCDD, or DMSO controls were harvested at Day 6+5 and seeded at 50,000 cells/dish in a standard methylcellulose colony-forming unit assay (CFU). Colonies were counted for each treatment group following 2 weeks of culture and scored for the following morphological subsets: BFU-E: burst-forming unit-erythroid; CFU-E: colony-forming unit-erythroid; CFU-GM: colony-forming unit-granulocyte, macrophage, CFU-M: colony-forming unit-macrophage; CFU-GEMM: colony-forming unit-granulocyte, erythroid, macrophage, megakaryocyte. n=3, error bars represent SEM of the total number of colonies/50,000 cells seeded, *p<0.05 as assessed with one-way ANOVA+Tukey-Kramer multiple comparisons post-hoc test. FIG. 9B. Non-adherent hematopoietic progenitor cells derived from hESCs differentiated in the presence of SR-1, TCDD, or DMSO controls were harvested at Day 6+3, Day 6+6, and Day 6+9 time points and probed for gene expression by quantitative real-time PCR (qRT-PCR). For each gene, Ct values were normalized to GAPDH at each time point and data is presented as relative fold-change to DMSO treated controls. n=3, error bars represent SEM, *p<0.05, **p<0.01 using student's t-test.
Non-adherent cell fractions were harvested as previously described in the main text. Total RNA was harvested using the Qiashredder tissue homogenizer kit (Qiagen, Valencia, Calif.) with RNAeasy Mini Kit. RNA concentration and purity was assessed using a NanoDrop 2000 (ThermoFisher Scientific) spectrophotometer and subsequently revere transcribed with a SensiFAST cDNA Synthesis Kit (Bioline, Taunton, Mass.). qPCR was performed using the All-in-One qPCR Mix (GeneCopoeia, Rockville, Md.) and cDNA was used at 50 ng/uL per reaction for qRT-PCR using gene specific human primer pairs (Table 1). qPCR reactions were run on an StepOnePlus Real-Time PCR System thermocycler (ThermoFisher Scientific) in either technical duplicate or triplicate. Ct values were normalized to a GAPDH housekeeper for each sample. Data were then normalized relative to controls using the 2̂-(ΔΔCt) method.

hESCs (H9) = assay: Hemato-endothelial differentiation of hESCs, flow cytometry, fold change vs DMSO (Example 2)
Procedure: FIG. 7A. Schema of hESC differentiation into early hemato-endothelial cells as spin-embryoid bodies (spin-EBs). hESCs are made into spin-EBs at Day 0 and conditioned into mesoderm lineages for 6 days using defined cytokines (Stage 1). At Day 6, spin-EBs are transferred into hemato-endothelial culture media (Stage 2) to promote endothelial and hematopoietic cell differentiation. For these studies, cells are treated with either 1 μM SR-1, 10 nM TCDD, or DMSO vehicle control beginning at Day 6+0 with media exchanges and/or harvesting performed at Day 6+3, Day 6+6, and Day 6+9. FIG. 7B. Representative flow cytometry plots of one hESCs differentiation. Both adherent and non-adherent cell fractions are harvested at Day 6+3, Day 6+6, and Day 6+9 and assessed for endothelial cell (CD34^+CD31^+, CD34^+CD144^+) and hematopoietic progenitor cell (CD34^+CD43^+, CD34^+CD45^+) phenotypes. FIG. 7C. Fold change of the total percentage of each hemato-endothelial phenotype for SR-1 and TCDD treated hESCs normalized to matched DMSO treated controls. n=4-6, error bars represent SEM, *p<0.05 as compared to DMSO treated controls by student's t-test. N/A: Not applicable due to absence appreciable of CD34^+CD45^+ populations at Day 6+3 time point.
Single-cell adapted hESCs (H9) were maintained on irradiated mouse embryonic fibroblasts (MEF) in ES growth media, as previously described in Ferrell et al. Stem Cells. 2015; 33(4):1130-41. hESCs were allowed to differentiate as spin-embryoid bodies (EBs) as previously described in Ferrell et al. and Ng et al. Nat. Protoc. 2008; 3(5):768-776 (FIG. 7A). In brief, hESCs were plated at 3,000 cells/100 μL in a round-bottom 96-well plate using serum-free BPEL media supplemented with 20 ng/mL BMP4, 40 ng/mL SCF, and 20 ng/mL VEGF (all R&D Systems, Minneapolis, Minn.). Cells were centrifuged to form embryoid bodies (defined as Day 0) and were incubated for 6 additional days (defined as Day 6) to promote mesoderm induction. To differentiate early endothelial and hematopoietic progenitor cells, Day 6 EBs were transferred to pre-gelatinized 24-well plates (approx. 8-16 EBs/well) with BEL media supplemented with 40 ng/mL SCF, 40 ng/mL VEGF, […] thrombopoietin (all R&D Systems, Minneapolis, Minn.), 30 ng/mL IL-3, and 30 ng/mL IL-6 (both PeproTech, Rocky Hill, N.J.). To modulate AHR activity, EBs were treated at Day 6+0 with DMSO, 1 μM SR-1 (Cellagen Technologies, San Diego, Calif.), or 10 nM 2,3,7,8-tetrachlorodibenzo-p-dioxin (TCDD) (Sigma-Aldrich, St. Louis, Mo.). Media was exchanged every 3 days with small molecule and cytokine supplementation. At indicated time points, non-adherent cell fractions were collected and saved while the remaining adherent fractions were treated with 0.05% trypsin containing 2% chicken serum. Adherent cells were combined with the non-adherent fractions for analysis, unless otherwise stated.
The following additional antibodies were used (all anti-human): LFA-1 (CD11a/CD18)-APC-R700 (BD Biosciences), CD31-APC (eBioscience), CD33-APC (BD Biosciences), CD34-PECy7 (BD Biosciences), CD34-APC (BD Biosciences), CD41a-APC (BD Biosciences), CD43-APC (BD Biosciences), CD45-APC (BD Biosciences), CD56-PECy7 (BD Biosciences), CD56-BV421 (BD Biosciences), CD94-PerCP-Cy5.5 (BD Biosciences), CD117-PECy7 (BD Biosciences), CD117-APC (eBiosciences), CD144-APC (eBioscience). Samples were analyzed on either an LSRFortessa or LSRII flow cytometer (BD Biosciences). Gating was set relative to isotype controls of identical fluorophores. Data from flow cytometry was analyzed using FlowJo software (Treestar, Ashland, Oreg.).

Row | Compound | CD107a expression (percentage of CD107a+ cells) (hESC-derived NK cells) [%] | expression of GATA1, fold relative to DMSO controls ([1]; Day 6+3) [fold] | expression of GATA2, fold relative to DMSO controls ([1]; Day 6+3) [fold] | mean GATA2:GATA1 ([1]; Day 6+3, SR-1 treatment) | expression of CMYB ([1]; all time points) | total percentage of CD34+CD31+ cells, fold vs DMSO controls (hESCs (H9); Day 6+3, 1 μM SR-1) [fold] | total percentage of CD34+CD144+ cells, fold vs DMSO controls (hESCs (H9); Day 6+3, 1 μM SR-1) [fold] | total percentage of CD34+CD31+ hemato-endothelial cells, fold vs DMSO controls (hESCs (H9); Day 6+6, 1 μM SR-1) [fold] | total percentage of CD34+CD43+ hematopoietic progenitor cells, fold vs DMSO controls (hESCs (H9); Day 6+6, 1 μM SR-1) [fold] | CD34+CD45+ hematopoietic progenitor cells, fold change normalized to DMSO (hESCs (H9); Day 6+9, 10 nM TCDD) | expression of GATA2, fold relative to DMSO controls ([1]; Day 6+6) [fold] | expression of PU.1 ([1]; each time point (Day 6+3, 6+6, 6+9)) | total percent of CD34+CD31+ cells, fold change normalized to DMSO (hESCs (H9); Day 6+9, 10 nM TCDD) | total percent of CD34+CD43+ cells, fold change normalized to DMSO (hESCs (H9); Day 6+9, 10 nM TCDD) | total percent of CD34+CD144+ cells, fold change normalized to DMSO (hESCs (H9); Day 6+9, 10 nM TCDD) | total percent of CD34− hematopoietic cells (hESCs (H9); Day 6+9, 10 nM TCDD)
1 | CC(C)n1cnc2c(NCCc3ccc(O)cc3)nc(-c3csc4ccccc34)nc21 [SR-1, StemReginin-1] | 58.1±0.67 | 2.58±0.40 | 6.85±0.74 | 2.67 | significant increase | 1.58±0.28 | 1.71±0.22 | 1.62±0.12 | 1.36±0.12 | 1.40±0.11 | – | – | – | – | – | –
2 | Clc1cc2c(cc1Cl)Oc1cc(Cl)c(Cl)cc1O2 [TCDD, 2,3,7,8-tetrachlorodibenzo-p-dioxin] | 36.8±2.1 | 0.31±0.08 | – | – | – | – | – | – | – | 0.44±0.06 | 0.37±0.13 | reciprocal expression | 0.49±0.06 | 0.67±0.09 | 0.33±0.13 | increase
